In ChEMBL document CHEMBL2169792, “Synthesis of new 4-thiazolidinone-, pyrazoline-, and isatin-based conjugates with promising antitumor activity” (J Med Chem, 2012):

Assays:
HT-29 = assay: Cytotoxicity against human HT-29 cells after 48 hrs by SRB assay; assay type: functional; conditions: HT-29, 48 h
NCI-H226 = assay: Cytotoxicity against human NCI-H226 cells after 48 hrs by SRB assay; assay type: functional; conditions: NCI-H226, 48 h
SNB-75 = assay: Cytotoxicity against human SNB75 cells after 48 hrs by SRB assay; assay type: functional; conditions: SNB-75, 48 h
[1] = Cytotoxicity against human prostate cancer cells after 48 hrs by SRB assay; assay type: functional; conditions: Cancer cell lines
786-0 = assay: Cytotoxicity against human 786-0 cells after 48 hrs by SRB assay; assay type: functional; conditions: 786-0, 48 h
MDA-MB-231 = assay: Cytotoxicity against human MDA-MB-231 cells after 48 hrs by SRB assay; assay type: functional; conditions: MDA-MB-231, 48 h
TK-10 = assay: Cytotoxicity against human TK10 cells after 48 hrs by SRB assay; assay type: functional; conditions: TK-10, 48 h
SN12C = assay: Cytotoxicity against human SN12C cells after 48 hrs by SRB assay; assay type: functional
UO-31 = assay: Cytotoxicity against human UO31 cells after 48 hrs by SRB assay; assay type: functional; conditions: UO-31, 48 h
[2] = Cytotoxicity against human renal cancer cells after 48 hrs by SRB assay; assay type: functional; conditions: Cancer cell lines
K562 = assay: Cytotoxicity against human K562 cells after 48 hrs by SRB assay; assay type: functional; conditions: K562, 48 h
HOP-62 = assay: Cytotoxicity against human HOP62 cells after 48 hrs by SRB assay; assay type: functional; conditions: HOP-62, 48 h
[3] = Toxicity in mouse; assay type: organism-based; conditions: in vivo
UACC-62 = assay: Cytotoxicity against human UACC62 cells after 48 hrs by SRB assay; assay type: functional; conditions: UACC-62, 48 h
T47D = assay: Cytotoxicity against human T47D cells after 48 hrs by SRB assay; assay type: functional
NCI-H322M = assay: Cytotoxicity against human NCI-H322M cells after 48 hrs by SRB assay; assay type: functional
PC-3 = assay: Cytotoxicity against human PC3 cells after 48 hrs by SRB assay; assay type: functional; conditions: PC-3, 48 h
[4] = Cytotoxicity against human colon cancer cells after 48 hrs by SRB assay; assay type: functional; conditions: Cancer cell lines
HCC 2998 = assay: Cytotoxicity against human HCC2998 cells after 48 hrs by SRB assay; assay type: functional; conditions: HCC 2998, 48 h
HOP-92 = assay: Cytotoxicity against human HOP92 cells after 48 hrs by SRB assay; assay type: functional; conditions: HOP-92, 48 h
NCI/ADR-RES = assay: Cytotoxicity against human NCI/ADR-RES cells after 48 hrs by SRB assay; assay type: functional
CAKI-1 = assay: Cytotoxicity against human CAKI-1 cells after 48 hrs by SRB assay; assay type: functional; conditions: CAKI-1, 48 h
MDA-MB-468 = assay: Cytotoxicity against human MDA-MB-468 cells after 48 hrs by SRB assay; assay type: functional; conditions: MDA-MB-468, 48 h
A498 = assay: Cytotoxicity against human A498 cells after 48 hrs by SRB assay; assay type: functional; conditions: A498, 48 h
A549 = assay: Cytotoxicity against human A549 cells after 48 hrs by SRB assay; assay type: functional; conditions: A549, 48 h
OVCAR-5 = assay: Cytotoxicity against human OVCAR5 cells after 48 hrs by SRB assay; assay type: functional; conditions: OVCAR-5, 48 h
SK-MEL-28 = assay: Cytotoxicity against human SK-MEL-28 cells after 48 hrs by SRB assay; assay type: functional; conditions: SK-MEL-28, 48 h
SW-620 = assay: Cytotoxicity against human SW620 cells after 48 hrs by SRB assay; assay type: functional; conditions: SW-620, 48 h
HL-60(TB) = assay: Cytotoxicity against human HL-60(TB) cells after 48 hrs by SRB assay; assay type: functional; conditions: HL-60, 48 h
ACHN = assay: Cytotoxicity against human ACHN cells after 48 hrs by SRB assay; assay type: functional
DU-145 = assay: Cytotoxicity against human DU145 cells after 48 hrs by SRB assay; assay type: functional; conditions: DU-145, 48 h
SR = assay: Cytotoxicity against human SR cells after 48 hrs by SRB assay; assay type: functional
SNB-19 = assay: Cytotoxicity against human SNB19 cells after 48 hrs by SRB assay; assay type: functional; conditions: SNB-19, 48 h
COLO 205 = assay: Cytotoxicity against human COLO205 cells after 48 hrs by SRB assay; assay type: functional; conditions: COLO 205, 48 h
NCI-H522 = assay: Cytotoxicity against human NCI-H522 cells after 48 hrs by SRB assay; assay type: functional; conditions: NCI-H522, 48 h
[5] = Cytotoxicity against human melanoma cells after 48 hrs by SRB assay; assay type: functional; conditions: Melanoma cell
[6] = read-out: LC50 (the source's name)

## COc1ccc(C2CC(c3ccc4ccccc4c3)=NN2C2=NC(=O)/C(=C3\C(=O)Nc4ccc(Br)cc43)S2)cc1 (stereo unspecified)
HT-29
  GI50: 0.199 µM
  TGI: 0.537 µM
NCI-H226
  GI50: 0.0215 µM
  TGI: 0.173 µM
NCI-H226; [6]
  CC50: 0.586 µM
SNB-75
  GI50: 0.0159 µM
  TGI: 0.0343 µM
SNB-75; [6]
  CC50: > 0.0698 µM
[1]
  GI50: 0.059 µM
  LC50: 13.8 µM
  TGI: 0.51 µM
786-0
  GI50: 0.0194 µM
  TGI: 0.0387 µM
786-0; [6]
  CC50: > 0.0772 µM
MDA-MB-231
  GI50: 0.0145 µM
  TGI: 0.0627 µM
MDA-MB-231; [6]
  CC50: 0.349 µM
TK-10
  GI50: 0.17 µM
  TGI: 0.522 µM
TK-10; [6]
  CC50: > 100 µM
SN12C
  GI50: 0.0434 µM
  TGI: 0.223 µM
SN12C; [6]
  CC50: 1.7 µM
UO-31
  GI50: 0.0578 µM
[2]
  GI50: 0.064 µM
  LC50: 5.19 µM
  TGI: 0.33 µM
K562
  GI50: 0.037 µM
  TGI: > 12.4 µM
K562; [6]
  CC50: > 100 µM
HOP-62
  GI50: 0.022 µM
  TGI: 0.0498 µM
HOP-62; [6]
  CC50: > 0.157 µM
[3]
  MTD: > 400 mg/kg
UACC-62
  GI50: 0.0547 µM
  TGI: 0.261 µM
UACC-62; [6]
  CC50: 1.19 µM
T47D
  GI50: 0.0236 µM
  TGI: 0.061 µM
NCI-H322M
  GI50: 0.036 µM
  TGI: 0.56 µM
NCI-H322M; [6]
  CC50: > 64.1 µM
PC-3
  GI50: 0.026 µM
  TGI: 0.0827 µM
PC-3; [6]
  CC50: 5.46 µM
[4]
  GI50: 0.05 µM
  LC50 (concentration lethal to 50% of cells): 1.15 µM
  TGI: 0.14 µM
HCC 2998
  GI50: 0.0252 µM
  TGI: 0.0658 µM
HCC 2998; [6]
  CC50: 0.272 µM
HOP-92
  GI50: < 0.01 µM
  TGI: 0.0242 µM
HOP-92; [6]
  CC50: 1.47 µM
NCI/ADR-RES
  GI50: 0.675 µM
  TGI: > 100 µM
NCI/ADR-RES; [6]
  CC50: > 100 µM
CAKI-1
  GI50: 0.0965 µM
  TGI: 0.608 µM
CAKI-1; [6]
  CC50: > 100 µM
MDA-MB-468
  GI50: 0.0223 µM
  TGI: 0.0622 µM
MDA-MB-468; [6]
  CC50: 0.19 µM
A498
  GI50: 0.0251 µM
  TGI: 0.0786 µM
A498; [6]
  CC50: 0.316 µM
A549
  GI50: 0.0247 µM
  TGI: 0.0695 µM
A549; [6]
  CC50: 25.7 µM
OVCAR-5
  GI50: 0.0336 µM
  TGI: 0.131 µM
OVCAR-5; [6]
  CC50: 2.11 µM
SK-MEL-28
  GI50: 0.0218 µM
  TGI: 0.0515 µM
SK-MEL-28; [6]
  CC50: > 0.205 µM
SW-620
  GI50: 0.022 µM
  TGI: 0.0477 µM
SW-620; [6]
  CC50: 0.127 µM
HL-60(TB)
  GI50: 0.257 µM
  TGI: 3.2 µM
HL-60(TB); [6]
  CC50: > 49.3 µM
ACHN
  GI50: 0.0267 µM
  TGI: 0.0646 µM
ACHN; [6]
  CC50: > 32.3 µM
DU-145
  GI50: 0.0393 µM
  TGI: 0.752 µM
DU-145; [6]
  CC50: 25.5 µM
SR
  GI50: 0.0289 µM
  TGI: 0.13 µM
SR; [6]
  CC50: > 100 µM
SNB-19
  GI50: 0.0385 µM
  TGI: 0.411 µM
SNB-19; [6]
  CC50: 8.98 µM
COLO 205
  GI50: 0.021 µM
  TGI: 0.042 µM
COLO 205; [6]
  CC50: > 0.0841 µM
NCI-H522
  GI50: 0.124 µM
  TGI: 0.288 µM
[5]
  GI50: 0.069 µM
  TGI: 0.19 µM
[5]; [6]
  CC50: 3.52 µM
